Experimental data published in patent publication US7652029B2, “Therapeutic compound and treatments” (priority 2004, dated 2010).

Columns and labels:
[1] = test system: normal human lung fibroblasts; assay: Growth response, MTT dye conversion assay; format: cell-based; conditions: compared with cisplatin
PC-3 = assay: NCI multiple cell line test (SRB); format: cell-based, human; conditions: PC-3 (Prostate Cancer), 48 h
HT29 = assay: NCI multiple cell line test (SRB); format: cell-based, human; conditions: HT29 (Colon Cancer), 48 h
HL-60 (TB) = assay: NCI multiple cell line test (SRB); format: cell-based, human; conditions: HL-60 (TB) (Leukemia), 48 h
Procedure: (§1) The NCI tested MT477 60 cell line test, and reported the GI50, TGI, and LC50 values of MT477 for each cell line, reported herein at Table 3.
(§2) Methodology: The NCI conducted a test of the MT477 drug against about 60 human cell lines, with a minimum of five concentrations of MT477 at 10-fold dilutions, with no more than 5(10)^−5 molar of drug being used. A 48 hour continuous drug exposure was used, and a sulforhodamine B (SRB) protein assay was used to estimate cell viability and growth. The human tumor cell lines of the cancer screening panel were grown in RPMI 1640 medium containing 5% fetal bovine serum and 2 mM L-glutamine. Cells were inoculated into 96 well microtiter plates in 100 μL at plating densities ranging from 5,000 to 40,000 cells/well depending on the doubling time of individual cell lines. After cell inoculation, the microtiter plates are incubated at 37° C., 5% CO2, 95% air, and 100% relative humidity for 24 h prior to addition of experimental drugs.
(§3) After 24 h, two plates of each cell line were fixed in situ with TCA, to represent a measurement of the cell population for each cell line at the time of drug addition (Tz). MT477 was solubilized in dimethyl sulfoxide at 400-fold the desired final maximum test concentration and stored frozen prior to use. At the time of drug addition, an aliquot of frozen concentrate was thawed and diluted to twice the desired final maximum test concentration with complete medium containing 50 μg/ml gentamicin. Additional four, 10-fold or ½ log serial dilutions were made to provide a total of five drug concentrations plus control. Aliquots of 100 μl of these different drug dilutions were added to the appropriate microtiter wells already containing 100 μl of medium, resulting in the required final drug concentrations.
(§4) Following drug addition, the plates were incubated for an additional 48 h at 37° C., 5% CO2, 95% air, and 100% relative humidity. For adherent cells, the assay was terminated by the addition of cold TCA. Cells were fixed in situ by the gentle addition of 50 μl of cold 50% (w/v) TCA (final concentration, 10% TCA) and incubated for 60 minutes at 4° C. The supernatant was discarded, and the plates were washed five times with tap water and air dried. Sulforhodamine B (SRB) solution (100 μl) at 0.4% (w/v) in 1% acetic acid was added to each well, and plates were incubated for 10 minutes at room temperature. After staining, unbound dye was removed by washing five times with 1% acetic acid and the plates were air-dried. Bound stain was subsequently solubilized with 10 mM trizma base, and the absorbance was read on an automated plate reader at a wavelength of 515 nm. For suspension cells, the methodology was the same except that the assay was terminated by fixing settled cells at the bottom of the wells by gently adding 50 μl of 80% TCA (final concentration, 16% TCA). Using the seven absorbance measurements (time zero, (Tz), control growth, (C), and test growth in the presence of drug at the five concentration levels (Ti)), the percentage growth was calculated at each of the drug concentrations levels. Percentage growth inhibition was calculated as: [(Ti−Tz)/(C−Tz)]×100 for concentrations for which Ti>/=Tz [(Ti−Tz)/Tz]×100 for concentrations for which Ti<Tz.
(§5) Three dose response parameters were calculated for each experimental agent. Growth inhibition of 50% (GI50) was calculated from [(Ti−Tz)/(C−Tz)]×100=50, which is the drug concentration resulting in a 50% reduction in the net protein increase (as measured by SRB staining) in control cells during the drug incubation. The drug concentration resulting in total growth inhibition (TGI) was calculated from Ti=Tz. The LC50 (concentration of drug resulting in a 50% reduction in the measured protein at the end of the drug treatment as compared to that at the beginning) indicating a net loss of cells following treatment was calculated from [(Ti−Tz)/Tz]×100=−50. […]

NCI-H322M = assay: NCI multiple cell line test (SRB); format: cell-based, human; conditions: NCI-H322M (Non-Small Cell Lung Cancer), 48 h
Procedure: as §1, §2, §3, §4, §5

M14 = assay: NCI multiple cell line test (SRB); format: cell-based, human; conditions: M14 (Melanoma), 48 h
Procedure: as §1, §2, §3, §4, §5

RPMI-8226 = assay: NCI multiple cell line test (SRB); format: cell-based, human; conditions: RPMI-8226 (Leukemia), 48 h
ACHN = assay: NCI multiple cell line test (SRB); format: cell-based, human; conditions: ACHN (Renal Cancer), 48 h
SW-620 = assay: NCI multiple cell line test (SRB); format: cell-based, human; conditions: SW-620 (Colon Cancer), 48 h
[2] = test system: human endothelial vein cells (HUVECs); assay: Growth response, MTT dye conversion assay; format: cell-based; conditions: FIG. 6; 48 hours; compared with cisplatin
LOX IMVI = assay: NCI multiple cell line test (SRB); format: cell-based, human; conditions: LOX IMVI (Melanoma), 48 h
UACC-62 = assay: NCI multiple cell line test (SRB); format: cell-based, human; conditions: UACC-62 (Melanoma), 48 h
HOP-92 cells = assay: Growth response, MTT dye conversion assay; format: cell-based, human; conditions: low doses (FIG. 12 as printed)
SN12C = assay: NCI multiple cell line test (SRB); format: cell-based, human; conditions: SN12C (Renal Cancer), 48 h
[3] = Homo sapiens, read-out: −log10GI50 (converted)

COC(=O)C1=C(C(=O)OC)SC2(S1)C(C(=O)OC)=C(C(=O)OC)SC1=C2c2cccc(OC)c2N(C(=O)CN2C(=O)CCC2=O)C1(C)C [MT477]
growth response ([1]; FIG. 10, normal human lung cells at 24 and 48 hours): more effective than cisplatin | cytotoxicity profile (growth response) ([1]; FIGS. 1 and 2, 48 hours): cytotoxicity profile that is similar to cisplatin | IC50 (PC-3; [3]): 1450 nM | −log10LC50 (PC-3): 4.64 molar | −log10TGI (PC-3): 5.35 molar | −log10LC50 (HT29): * (effect not reached at maximum dose of 0.05 millimolar) | −log10TGI (HT29): 4.65 molar | IC50 (HT29; Homo sapiens, HT-29, read-out: −log10GI50 (converted)): 1700 nM | −log10LC50 (HL-60 (TB)): * (effect not reached at maximum dose of 0.05 millimolar) | −log10TGI (HL-60 (TB)): 4.83 molar | IC50 (HL-60 (TB); [3]): 2190 nM | IC50 (NCI-H322M; [3]): 6460 nM | −log10TGI (NCI-H322M): 4.87 molar | −log10GI50 (M14): 602 molar | IC50 (RPMI-8226; [3]): 7590 nM | −log10LC50 (RPMI-8226): 4.42 molar | −log10TGI (RPMI-8226): 4.77 molar | −log10LC50 (ACHN): 5.5 molar | −log10TGI (ACHN): 5.77 molar | IC50 (ACHN; [3]): 891 nM | IC50 (SW-620; [3]): 1660 nM | −log10LC50 (SW-620): * (effect not reached at maximum dose of 0.05 millimolar) | −log10TGI (SW-620): * (effect not reached at maximum dose of 0.05 millimolar) | cytotoxicity profile (growth response) [2]: cytotoxicity profile that is similar to cisplatin | IC50 (LOX IMVI; [3]): 851 nM | −log10LC50 (LOX IMVI): 5.52 molar | −log10TGI (LOX IMVI): 5.79 molar | IC50 (UACC-62; [3]): 1170 nM | −log10LC50 (UACC-62): 5.03 molar | −log10TGI (UACC-62): 5.55 molar | growth response at low concentrations (HOP-92 cells): effective even at very low doses, including micromolar dosages | IC50 (SN12C; [3]): 5890 nM | −log10LC50 (SN12C): 4.6 molar | −log10TGI (SN12C): 4.91 molar
